Assay results published in patent US6593137B1, “Antibodies specific for fullerenes” (The Trustees of Columbia University in the City of New York, priority 1999, dated 2003).

Assays:
[1] = system: human keratinocytes and fibroiblasts; conditions: cited from earlier work
Sprague-Dawley rats = assay: γ-camera imaging study; type: in vivo; conditions: IP
Description: The biodistribution in mice of hydroxylated lanthanide-C82 encapsulates is under current investigation. The results presented here are regarded as preliminary as the sample is still small. Studies continue under a NIH Phase I grant. The neutron irradiated samples, along with a ^166Ho^3+ control sample, were used to perform a γ-camera imaging study on four 300 g Sprague-Dawley rats. Two rats were injected intraperitoneally (IP) with 54 and 18 μCi of ^166Ho activity from samples containing irradiated Ho-metallofullerois. Two control studies were performed by IP administration of approximately 660 μCi of ^166Ho^3+ in a 1% sodium citrate buffer. The anesthetized rats were scanned side-by-side on a single stage with a γ-camera starting 1 hour after injection and periodically thereafter over the ensuing 48 hours.

Air sensitivity = type: physicochemical
From the text: While previous work reported in the literature performed HPLC under aerobic conditions, (see for example Funasaka et al. 1995) these studies determined that anaerobic controls better preserved the fraction of Gd@C82 in solution. […] The fraction containing the Gd@C82 was identified using MS. The solubility of fullerenes in o-xylene is about three times that of toluene and this greatly increases the ratio of fullerenes in solution to those retained on the stationary phase. Therefore, the capacity or amount of fullerenes purified per injection was very large. Each injection contained 2 ml of saturated fullerene o-xylene solution (about 30 mg of fullerenes).

[2] = system: anti-fullerene antibodies; assay: ELISA competitive inhibition of antibody binding to 1-RSA; design: species or system BALB/c mice
Description: After a total of three immunizations at 3-week intervals, confirmation of an immune response was determined by direct ELISA in which polystyrene plates (Corning) were coated with the 1-RSA conjugate (0.5 mg/ml in 0.1 M NaHCO3, pH 9), and binding of preimmune and immune sera were determined by standard procedures. Development was with horseradish peroxidase-labeled goat anti-mouse IgG (Sigma), which tested negative for crossreaction with an IgM preparation. The substrate used was o-phenylenediamine.
(§1) Specificity of the resp)onse was determined by two procedures: double diffusion in agar (22) and competitive inhibition, as determined by ELISA using RSA and BSA conjugates of the fullerenes, as well as the oligo lysine derivatives. The fullerenes themselves were not soluble enough in aqueous solutions.
The adenosine conjugate had been synthesized using the same strategy used for the fullerenes, i.e., linkage to the epsilon amino groups of the lysines via an N-hydroxysuccinimide ester derivative.

[3] = system: anti-fullerene antibodies; assay: Double diffusion in agar; type: binding, BALB/c mice
Description: Immunization Procedure and Detection of Antibodies. BALB/c mice were immunized i.p. with 1-TG in complete Freund's adjuvant for the primary immunization and incomplete adjuvant for subsequent immunizations.
as §1
Specificity of the response was determined by two procedures: Double diffusion in agar and competitive inhibition, as determined by ELISA using RSA and BSA conjugates of the fullerenes, as well as the oligo lysine derivatives. The fullerenes themselves were not soluble enough in aqueous solutions.

c12c3c4c5c1c1c6c7c2c2c8c3c3c9c4c4c%10c5c5c1c1c6c6c%11c7c2c2c7c8c3c3c8c9c4c4c9c%10c5c5c1c1c6c6c%11c2c2c7c3c3c8c4c4c9c5c1c1c6c2c3c41 [Compound C60, fullerene-C60]
effect on rate of thymidine uptake [1]: no effect

[166Ho+3] [^166Ho^3+]
excretion of 166Ho activity (Sprague-Dawley rats; after 24 hours): essentially all ^166Ho activity had been excreted | urinary clearance (Sprague-Dawley rats; commencing 1 hour post-injection): rapid ^166Ho^3+ urinary clearance

Gd@C82(OH)x
air sensitivity (Air sensitivity): does not appear to be air sensitive

Rabbit Serum Albumin [RSA]
inhibition of antibody binding to 1-RSA [2]: No inhibition

bovine thyroglobulin [TG]
precipitation with immune serum in double diffusion in agar ([3]; TG solution diluted 5-fold): a line of precipitation was seen | precipitation with immune serum in double diffusion in agar ([3]; serum of mice immunized with 1-TG): no visible precipitate | inhibition of antibody binding to 1-RSA [2]: No inhibition
